Values of other authors as cited in patent US20110269740A1, “JAK KINASE MODULATING COMPOUNDS AND METHODS OF USE THEREOF” (Ambit Biosciences Corporation, priority 2008, published 2011).
Like-named read-outs stand apart in the source and are kept apart here.

Columns and labels:
[1] = test system: CML cell lines such as 32Dp210 and K562, as well as mouse Bcr-Abl+32D cells; details: CML cell lines 32Dp210, K562, mouse Bcr-Abl+32D
[2] = test system: prostate cancer cell DU145
[3] = test system: BCR-Abl+BaF3 cells which carried the Abl T315I mutation; details: imatinib-resistant
transplant rejection [4] = details: non-human primate renal transplant model, orally available
transplant rejection [5] = details: murine heterotopic heart transplant model, orally available

N#C/C(=C/c1ccc(O)c(O)c1)C(=O)NCc1ccccc1 [AG490]
downstream effect on c-Myc [1]: reduction of c-Myc | apoptosis [2]: induced apoptosis | apoptosis [3]: induce apoptosis

C[C@@H]1CCN(C(=O)CC#N)C[C@@H]1N(C)c1ncnc2[nH]ccc12 [CP-690550]
prevention of transplant rejection (transplant rejection [4]): efficacy in preventing transplant rejection | prevention of transplant rejection (transplant rejection [5]): efficacy in preventing transplant rejection
